From a melting point compilation (Tetko et al.; mined from patent text by program, amines drawn as free bases though some values may be those of a salt)

| Compound | melting point [°C] |
| --- | --- |
| CCCNC(=O)c1ccsc1N=C(OCCC)OCCC | 57 to 58 |
| CC1CN(C(=O)OC(C)(C)C)CCC1(O)c1cc(C(F)(F)F)cc2ccoc12 (stereo not given) | 133 to 136 |
| CN(C)CCCOc1ccc2c(c1)C(c1ccccc1)CC(=O)N2 (stereo not given) | 134 to 136 |
| Cc1ccccc1Cn1c(=O)[nH]c2cc(Cl)cc(Cl)c2c1=O | 274 to 276 |
| COc1ccccc1C1CCN(C[C@@H](CC2CCCCC2)NC(=O)C2CCCCC2)CC1 | 100 to 103 |
| Clc1ncccc1-c1nc2cccnc2o1 | 140 to 141 |
| COC(=O)CC1OC(=O)c2ccccc21 (stereo not given) | 62 to 63 |
| CCCCN(C(=O)c1cnc(N2CCNC2=O)nc1N)c1cccc(C(F)(F)F)c1 | 234 to 235 |
| COc1cn(-c2ccc(-n3cccn3)cc2F)nc(C(C)=O)c1=O | 159 to 161 |
| CC(C)(C)NS(=O)(=O)c1ccccc1C(=O)CF | 126 |
| O=C(CCl)Nc1ccc(Sc2ccc([N+](=O)[O-])cc2)cc1 | 217 to 219 |
| CN(C)CCNCCn1nc2c3c(c(NCCNCCO)ccc31)C(=O)c1c(O)ccc(O)c1-2 | 148 to 153 |
| O=[N+]([O-])c1ccc(C(O)c2ccoc2)cc1 (stereo not given) | 50 to 52 |
| CN(C(=O)OC(C)(C)C)[C@@H](Cc1ccc(O)cc1)C(=O)N1CCN(c2ccc(Cl)c(Cl)c2)CC1 | 77 to 78 |
| CCc1ccc2nn(-c3cc(C)ccc3O)nc2c1 | 91 to 91.5 |
| Cc1cccc(-c2ccc(NC(=O)OC(C)(C)C)c([N+](=O)[O-])c2)c1 | 83 to 85 |
| Fc1ccc(-c2cc(N3CCN(C4CC4)CC3)nc3c2CCCCCC3)cc1 | 125 to 128 |
| O=C(O)CN1C(=O)C(=Cc2ccc(CO)o2)SC1=S | 206 to 209 |
| O=C(O)[C@H](Cc1ccccc1)NS(=O)(=O)c1ccc2c(c1)Sc1ccccc1O2 | 120 to 130 |
| CC(C)C(NC(=O)OC(C)(C)C)C(=O)NC(C(=O)OC1CC(n2cc(C=CBr)c(=O)[nH]c2=O)OC1CCl)C(C)C (stereo not given) | 114 to 116 |
| CC(Br)C(=O)c1ccc(OC(=O)C(C)(C)C)c(OC(=O)C(C)(C)C)c1 (stereo not given) | 58 to 60 |
| Cn1cc(C2=C(c3c4n(c5ccccc35)CCN(C(=O)Oc3ccccc3)C4)C(=O)NC2=O)c2ccccc21 | 160 to 165 |
| Cc1ccc(N2CCC3CCc4cnccc4C3=N2)cc1 (stereo not given) | 158 to 159 |
| O=C1c2c(Br)cccc2-n2cnc(C(=O)n3ccnc3)c2[C@@H]2CCCN12 | 215 to 217 |

| Compound | melting point [°C] |
| --- | --- |
| CS(=O)(=O)c1ccc(Oc2cc(OC3CCOCC3)c3[nH]c(C4=NCC(CCO)S4)cc3c2)cc1 (stereo not given) | 116 to 117 |
| C[C@H]1CN(c2nc(-c3ccccc3)nc3ccccc23)[C@@H](C)CN1c1ccccn1 (relative stereo) | 68 to 70 |
| COC(=O)c1sccc1N=NN(C)C | 74 to 76 |
| CCOC(=O)CCc1cc(O)nn1C(C)C | 119 to 120 |
| COc1cc(C2CCN(CCO)CC2)ccc1Nc1ncc2ccc(-c3cccc(S(=O)(=O)NC(C)(C)C)c3)n2n1 | 220 to 224 |
| COc1cccc2c(CCCN(C3CCC3)C3COc4c(F)ccc(C(N)=O)c4C3)coc12 (stereo not given) | 131 to 140 |
| COc1ccc(C2(c3ccc(OC(F)F)cc3)N=C(N)N(C)C2=O)cc1C#N (stereo not given) | 104 to 105 |
| Cc1c(C)c2c(c(C)c1OC(=O)c1ccccc1)SC(CCCOC(=O)c1ccccc1)O2 (stereo not given) | 114 to 116 |
| COc1cc2nc(N3CCCN(C(=O)C=Cc4cccnc4)CC3)nc(N)c2cc1OC | 141 to 143 |
| NC(=O)N(O)CCNC(=O)c1cc2c(Cl)cccc2s1 | 181 to 184 |
| COC(=O)C(=CNc1ccc(O)cc1)C(=O)C=CC1CC=CCC1 (stereo not given) | 151 to 153 |
| S=c1c2cccnc2c(-c2cccc(Cl)c2)nn1Cc1ccccc1 | 132 |
| CCOC(=O)CNC(=O)[C@H](Cc1ccc(O)cc1)NC(=O)[C@H](CO)NC(=O)[C@H](Cc1c[nH]c2ccccc12)NC(=O)[C@H](Cc1c[nH]cn1)NC(=O)[C@@H]1CCC(=O)N1 | 218 to 220 |
| Cc1[nH]c2cc(OCc3ccccc3)ccc2c1C(=O)C1CSC(c2cccnc2)N1 (stereo not given) | 89 to 93 |
| O=C(O)C[C@@H](Cc1ccccc1)C(=O)OCc1ccccc1 | 48 to 52 |
| CC1(C)Nc2ccccc2-n2cnc(-c3nc(C4CC4)no3)c21 | 175 to 179 |
| CCc1cc(C2=CCN(CCCC(O)c3ccc(F)cc3)CC2)[nH]n1 (stereo not given) | 140 to 142 |
| Nc1ncnc2c1c(-c1ccc(Oc3ccccc3)cc1)cn2C1COCC1O (stereo not given) | 234 to 236 |
| CCC#CCCOc1ccc(C=O)cc1OC | 80 to 81 |
| O=C(O)c1nnn(Cc2ccccc2)n1 | 127 to 130 |
| COc1cc(NC(=S)NC(=O)c2ccccc2)cc(-c2ccccc2)c1 | 149 |
| CCOc1ncc(C(C)=O)cc1C(=O)Nc1c(C(N)=O)n[nH]c1CC | 217 to 219 |
| CCOC(=O)c1c2n(c3c(Br)c(N4CCN(C)CC4)c(F)cc3c1=O)C(C)S2 (stereo not given) | 189 to 190 |
| Cc1ccc(-c2cc(C(=O)/C=C/c3ccc(C(=O)O)cc3)cc3c2C(C)(C)CCC3(C)C)cc1 | 242 |

| Compound | melting point [°C] |
| --- | --- |
| CC(Cc1c[nH]c2ccccc12)(NC(=O)OC1C2CC3CC(C2)CC1C3)C(=O)NCCC1=CCCCC1 (stereo not given) | 77 to 79 |
| NS(=O)(=O)c1ccc(-c2cc3n(c2-c2ccc(F)cc2)CCC3)cc1 | 207 |
| CN(C(=O)OC(C)(C)C)c1cc(Sc2cc(C(C)(C)C)c(O)c(C(C)(C)C)c2)ccc1N | 95 to 96 |
| CC12CCC3c4ccc(O)cc4CCC3C1CC(O)C2 (stereo not given) | 181 to 182 |
| C[C@H]1COS(=O)(=O)N1C(=O)OC(C)(C)C | 121 to 122 |
| Cc1nnc(C)n1NC(=N)c1ccc(Cl)cc1 | 303 to 306 |
| COc1ccccc1C1CCC(=O)CC1(O)C(=O)O (stereo not given) | 204 |
| CCOc1cc2nc(S(C)(=O)=O)[nH]c2cc1OCC | 182 to 184 |
| CCOC(=O)c1cc(C)c(Cl)nc1Nc1ccc(I)cc1 | 144 to 146 |
| Cc1cc2ccccc2cc1C=O | 119 |
| COc1cc2c(cc1O)CCN(Cc1ccc(OC)c(OC)c1OC)C2 | 65 to 66 |
| CCOC(=O)c1nc(C2CC2)nc(NCc2ccccc2)c1Cl | 59 to 61 |
| O=C(/C=C/c1ccccc1Sc1ccc(Cl)cc1)NC1CCC(O)CC1 (stereo not given) | 86 to 88 |
| N#Cc1cccc(C2=Nc3ccc(-c4ccc(-c5ccccc5)cc4)cc3NC(=O)C2)c1 | 251 to 253 |
| CCOC(=O)C(NC(C)=O)=C(c1ccc(F)cc1)c1ccc(F)cc1 | 200 to 201 |
| CCCCOCCOc1ccc(-c2ccc3c(c2)C=C(C(=O)O)CCN3Cc2ccccc2)cc1 | 133 to 138 |
| CCOC(=O)C(=O)Nc1cc(C)c(C)cc1C(N)=O | 190 to 193 |
| COc1ccc(-c2ccc(C(C)=O)cc2)cc1C=O | 136 to 138 |
| CN1CCC(O)(C(c2cc(Cl)ccc2F)n2cccc2)CC1 (stereo not given) | 124 to 125 |
| CCN1CCN(CCOc2cc3ncc(C#N)c(Nc4cc(OC)c(Cl)cc4Cl)c3cc2OC)CC1 | 101 to 105 |
| c1ccc(-c2cnc3ncnn3c2)cc1 | 164 to 167 |
| COC(=O)COc1ccc(CC(C)NCC(O)c2ccc(O)c(CO)c2)cc1 (stereo not given) | 60 to 63 |
